Test results published in ChEMBL document CHEMBL5584339, “Design, Synthesis, and Evaluation of the Antitubercular Activity of 5-Phenyl Substituted-5, 6-dihydropyrido[2, 3-d]pyrimidine-4, 7(3H, 8H)-dione Compounds” (J Med Chem, 2024).
Converted amounts (≈) assume the structure as drawn. The source made the active and inactive calls. The calls are words filed in the database; no cut-off is given here.

What was measured:
[1] = system: Mycobacterium tuberculosis; test: Antitubercular activity against Mycobacterium tuberculosis H37Rv incubated for 7 days by alamar blue assay; type: functional; details: 168 h, time 7 day
[2] = Cytotoxicity against african green monkey Vero cells incubated for 48 hrs by CCK8 assay; type: toxicity, cell-based, Chlorocebus sabaeus
[3] = Selectivity index, ratio of IC50 for african green monkey Vero cells to IC50 for Mycobacterium tuberculosis H37Rv; type: toxicity; details: read-out: Ratio IC50
[4] = Cytotoxicity against HK-2 cells incubated for 48 hrs by CCK8 assay; type: toxicity, cell-based; details: human
[5] = Metabolic stability in mouse liver microsomes assessed as substrate remaining at 2 uM preincubated for 60 mins followed by NADPH addition and measured upto 60 mins by LC-MS analysis; type: ADME, Microsome; details: time < 120 min, read-out: Stability
[6] = Metabolic stability in mouse liver microsomes assessed as half-life at 2 uM preincubated for 60 mins followed by NADPH addition and measured upto 60 mins by LC-MS analysis; type: ADME, Microsome; details: time < 120 min
[7] = Metabolic stability in mouse liver microsomes assessed as intrinsic clearance per mg protein at 2 uM preincubated for 60 mins followed by NADPH addition and measured upto 60 mins by LC-MS analysis; type: ADME, Microsome; details: time < 120 min, read-out: CLH
[8] = Metabolic stability in human liver microsomes assessed as substrate remaining at 2 uM preincubated for 60 mins followed by NADPH addition and measured upto 60 mins by LC-MS analysis; type: ADME, Microsome; details: time < 120 min, read-out: Stability
[9] = Metabolic stability in human liver microsomes assessed as half-life at 2 uM preincubated for 60 mins followed by NADPH addition and measured upto 60 mins by LC-MS analysis; type: ADME, Microsome; details: time < 120 min
[10] = Metabolic stability in human liver microsomes assessed as intrinsic clearance per mg protein at 2 uM preincubated for 60 mins followed by NADPH addition and measured upto 60 mins by LC-MS analysis; type: ADME, Microsome; details: time < 120 min, read-out: CLH
[11] = system: Mycobacterium tuberculosis; test: Binding affinity to Mycobacterium tuberculosis AccD5 at 10 uM by SPR analysis

Structure (SMILES)	MIC [1] [mg/L]	IC50 at 48 h [2] [mg/L]	selectivity ratio [3]	further results
C=CCSc1nc2c(c(=O)[nH]1)C(c1ccc(OC)c(O)c1)CC(=O)N2 (stereo unspecified)	2.19 (≈ 6.09 µM)	> 100	> 45.7	–
COc1ccc(C2CC(=O)Nc3nc(SC)[nH]c(=O)c32)c(O)c1 (stereo unspecified)	> 10	> 100	–	–
C=CCSc1nc2c(c(=O)[nH]1)C(c1ccc(OCCC)cc1)CC(=O)N2 (stereo unspecified)	1.98 (≈ 5.33 µM)	4.57 (≈ 12.3 µM)	2.31	–
CCCSc1nc2c(c(=O)[nH]1)C(c1ccc(OCC)cc1)CC(=O)N2 (stereo unspecified)	0.35 (≈ 0.974 µM)	60.1 (≈ 167 µM)	174	–
CCC[S+]([O-])c1nc2c(c(=O)[nH]1)[C@H](c1ccc(OC)cc1)CC(=O)N2 (stereo partly specified)	> 32	–	–	–
CCCSc1nc2c(c(=O)[nH]1)C(c1ccc(OCC(C)C)cc1)CC(=O)N2 (stereo unspecified)	> 10	41.5 (≈ 107 µM)	–	–
CCCSc1nc2c(c(=O)[nH]1)C(c1ccc(OC)c(N)c1)CC(=O)N2 (stereo unspecified)	2 (≈ 5.55 µM)	> 100	> 50	–
CCCSc1nc2c(c(=O)[nH]1)C(c1ccc(OC)cc1[N+](=O)[O-])CC(=O)N2 (racemic)	0.12 (≈ 0.307 µM)	> 100	> 833	IC50 at 48 h [4]: > 100 mg/L; remaining at 1 h, 2 µM [5]: 66.8%; half-life at 2 µM [6]: 1.62 h; microsomal CLint at 2 µM [7]: 14.2 µL/min/mg; remaining at 1 h, 2 µM [8]: 73.7%; half-life at 2 µM [9]: 2.07 h; microsomal CLint at 2 µM [10]: 11.2 µL/min/mg
CCCOc1ccc(C2CC(=O)Nc3nc(SCCC)[nH]c(=O)c32)cc1O (stereo unspecified)	4.73 (≈ 12.1 µM)	99.3 (≈ 255 µM)	21	–
CCCCSc1nc2c(c(=O)[nH]1)C(c1ccc(OC)cc1)CC(=O)N2 (stereo unspecified)	0.5 (≈ 1.39 µM)	46.3 (≈ 129 µM)	93.1	–
C=CCSc1nc2c(c(=O)[nH]1)C(c1ccc(OC)cc1)CC(=O)N2 (stereo unspecified)	0.5 (≈ 1.46 µM)	41.1 (≈ 120 µM)	82.2	–
CCCCCCCOc1ccc(C2CC(=O)Nc3nc(SCCC)[nH]c(=O)c32)cc1 (stereo unspecified)	> 10	36.6 (≈ 85.1 µM)	–	–
CCCSc1nc2c(c(=O)[nH]1)C(c1cc(OC)c(OC)c(OC)c1)CC(=O)N2 (stereo unspecified)	> 10	> 100	–	–
NNC(=O)c1ccncc1 [ISONIAZID]	0.05 (≈ 0.365 µM)	> 100	> 2000	–
CCCSc1nc2c(c(=O)[nH]1)C(c1ccc(OC)cc1N)CC(=O)N2 (stereo unspecified)	> 10	> 100	–	–
C=CCSc1nc2c(c(=O)[nH]1)C(c1ccc(OC)cc1[N+](=O)[O-])CC(=O)N2 (stereo unspecified)	0.5 (≈ 1.29 µM)	> 100	> 200	–
CCCSc1nc2c(c(=O)[nH]1)[C@H](c1ccc(OC)cc1[N+](=O)[O-])CC(=O)N2	7.72 (≈ 19.8 µM)	> 64	–	IC50 at 48 h [4]: 56.2 mg/L (≈ 144 µM); Activity [11]: inactive
COc1ccc(C2CC(=O)Nc3nc(SC(C)C)[nH]c(=O)c32)cc1 (stereo unspecified)	2.27 (≈ 6.57 µM)	> 100	> 44.1	–
COc1ccc(C2CC(=O)Nc3nc(SC)[nH]c(=O)c32)cc1 (stereo unspecified)	9.24 (≈ 29.1 µM)	30.7 (≈ 96.6 µM)	3.32	–
CCCSc1nc2c(c(=O)[nH]1)C(c1ccccc1)CC(=O)N2C (stereo unspecified)	> 10	52.5 (≈ 159 µM)	< 5.2	–
CCCSc1nc2c(c(=O)n1C)C(c1ccc(OC)cc1)CC(=O)N2C (stereo unspecified)	> 10	46.5 (≈ 124 µM)	–	–
CCCS(=O)(=O)c1nc2c(c(=O)[nH]1)[C@H](c1ccc(OC)cc1[N+](=O)[O-])CC(=O)N2	> 32	–	–	–
CCC[S+]([O-])c1nc2c(c(=O)[nH]1)[C@@H](c1ccc(OC)cc1[N+](=O)[O-])CC(=O)N2 (stereo partly specified)	> 32	–	–	–
CCCSc1nc2c(c(=O)[nH]1)C(c1ccc(OC)c(OC)c1)CC(=O)N2 (stereo unspecified)	> 10	20.4 (≈ 54.5 µM)	< 2	–

Structure (SMILES)	MIC [1] [mg/L]	IC50 at 48 h [2] [mg/L]	selectivity ratio [3]	further results
CCCCSc1nc2c(c(=O)[nH]1)C(c1ccc(OC)c(O)c1)CC(=O)N2 (stereo unspecified)	3.19 (≈ 8.5 µM)	40.1 (≈ 107 µM)	12.6	–
COc1ccc(C2CC(=O)Nc3nc(SC)[nH]c(=O)c32)cc1O (stereo unspecified)	> 10	> 100	–	–
CCC[S+]([O-])c1nc2c(c(=O)[nH]1)[C@H](c1ccc(OC)cc1[N+](=O)[O-])CC(=O)N2 (stereo partly specified)	> 32	–	–	–
CCCCSc1nc2c(c(=O)[nH]1)C(c1ccc(OCCC)cc1)CC(=O)N2 (stereo unspecified)	> 10	57 (≈ 147 µM)	–	–
CCCSc1nc2c(c(=O)[nH]1)C(c1ccc(OC)cc1)CC(=O)N2 (racemic)	0.16 (≈ 0.463 µM)	14.5 (≈ 42 µM)	93	IC50 at 48 h [4]: 24.8 mg/L (≈ 71.7 µM); remaining at 1 h, 2 µM [5]: 87.6%; half-life at 2 µM [6]: 9.33 h; microsomal CLint at 2 µM [7]: 2.48 µL/min/mg; remaining at 1 h, 2 µM [8]: 83.4%; half-life at 2 µM [9]: 3.95 h; microsomal CLint at 2 µM [10]: 5.85 µL/min/mg
C=CCSc1nc2c(c(=O)[nH]1)C(c1ccc(OC)cc1O)CC(=O)N2 (stereo unspecified)	0.99 (≈ 2.75 µM)	> 100	> 101	–
CCCSc1nc2c(c(=O)[nH]1)C(c1ccc(OC)c(O)c1)CC(=O)N2 (stereo unspecified)	1.22 (≈ 3.38 µM)	> 100	> 82.1	–
CCCSc1nc2c(c(=O)[nH]1)C(c1ccc(OC)c(O)c1O)CC(=O)N2 (stereo unspecified)	> 10	27.5 (≈ 72.9 µM)	–	–
CCCSc1nc2c(c(=O)[nH]1)C(c1ccccc1)CC(=O)N2 (stereo unspecified)	9.66 (≈ 30.6 µM)	31.9 (≈ 101 µM)	3.3	–
CCCOc1ccc(C2CC(=O)Nc3nc(SCCC)[nH]c(=O)c32)c(O)c1 (stereo unspecified)	1.23 (≈ 3.16 µM)	43.9 (≈ 113 µM)	35.6	–
CCCSc1nc2c(c(=O)[nH]1)C(c1ccc(OC)c([N+](=O)[O-])c1)CC(=O)N2 (stereo unspecified)	4.84 (≈ 12.4 µM)	67.5 (≈ 173 µM)	14	–
CCCOc1ccc(C2CC(=O)Nc3nc(SC)[nH]c(=O)c32)cc1 (stereo unspecified)	> 10	53.5 (≈ 155 µM)	< 5.4	–
CCCSc1nc2c(c(=O)[nH]1)C(c1ccc(OC)cc1)CC(=O)N2C (stereo unspecified)	> 10	53.6 (≈ 149 µM)	–	–
CCCSc1nc2c(c(=O)[nH]1)C(c1ccc(OC)cc1O)CC(=O)N2 (stereo unspecified)	0.95 (≈ 2.63 µM)	54.1 (≈ 150 µM)	56.9	–
CCCS(=O)(=O)c1nc2c(c(=O)[nH]1)[C@@H](c1ccc(OC)cc1[N+](=O)[O-])CC(=O)N2	> 32	–	–	–
CCCSc1nc2c(c(=O)[nH]1)C(c1ccc(OC(C)C)cc1)CC(=O)N2 (stereo unspecified)	2.12 (≈ 5.68 µM)	24.9 (≈ 66.7 µM)	11.7	–
CCCSc1nc2c(c(=O)[nH]1)[C@H](c1ccc(OC)cc1)CC(=O)N2	7.83 (≈ 22.7 µM)	> 64	–	IC50 at 48 h [4]: 73.1 mg/L (≈ 212 µM)
CCCS(=O)(=O)c1nc2c(c(=O)[nH]1)[C@@H](c1ccc(OC)cc1)CC(=O)N2	> 32	–	–	–
C=CCSc1nc2c(c(=O)[nH]1)C(c1ccc(OCC)cc1)CC(=O)N2 (stereo unspecified)	1 (≈ 2.8 µM)	> 100	> 500	–
CCC[S+]([O-])c1nc2c(c(=O)[nH]1)[C@@H](c1ccc(OC)cc1)CC(=O)N2 (stereo partly specified)	> 32	–	–	–
CCCSc1nc2c(c(=O)n1C)C(c1ccccc1)CC(=O)N2C (stereo unspecified)	> 10	–	–	–
CCCS(=O)(=O)c1nc2c(c(=O)[nH]1)[C@H](c1ccc(OC)cc1)CC(=O)N2	> 32	–	–	–
CCCCSc1nc2c(c(=O)[nH]1)C(c1ccc(OC)cc1O)CC(=O)N2 (stereo unspecified)	4.65 (≈ 12.4 µM)	41.2 (≈ 110 µM)	8.87	–
CCCOc1ccc(C2CC(=O)Nc3nc(SCCC)[nH]c(=O)c32)cc1 (stereo unspecified)	1 (≈ 2.68 µM)	12.1 (≈ 32.3 µM)	12.1	–
